Data from US20140045824A1, “METHOD FOR PRODUCING COMPLEX CRYSTAL AND METHOD FOR SCREENING COMPLEX CRYSTAL” (priority 2011, published 2014).

Legend:
Type in all cases: physicochemical
[1] = Cocrystal screening by heat melting 1-menthol (Example 1), powder X-ray diffraction and thermal analysis; design: key to Cocrystal formation, Example 1: A cocrystal was completely formed.; B: A mixture of a cocrystal and the host compound or guest compound was formed.; C: A cocrystal was not formed (a mixture of the host compound and the guest compound was formed); conditions: host theophylline, equimolar guest, 1-menthol added, 4 hours at 80° C.
Experimental: Theophylline and a guest compound shown in Table 1 in an equimolar amount to theophylline were weighed and mixed using an agate mortar. […] Thereafter, the obtained mixed powder of theophylline, the guest compound, and 1-menthol was heated for 4 hours in an oven at 80° C., and the obtained solid was subjected to powder X-ray diffraction measurement and thermal analysis.

[2] = Cocrystal screening by mixing and grinding method (Comparative Example 5); design: key: A cocrystal was completely formed.; B: A mixture of a cocrystal and the host compound or guest compound was formed.; C: A cocrystal was not formed (a mixture of the host compound and the guest compound was formed); conditions: host carbamazepine, equimolar guest, mixed/ground in agate mortar
From the text: (§1) Carbamazepine and a guest compound shown in Table 4 in an equimolar amount to carbamazepine were weighed and mixed using an agate mortar. At that time, particles having a large size to an extent that they could be distinguished through visual inspection were grinded on the agate mortar. The obtained solids were subjected to powder X-ray diffraction measurement and thermal analysis.

[3] = Cocrystal screening by co-grinding method (Comparative Example 2); design: key: A cocrystal was completely formed.; B: A mixture of a cocrystal and the host compound or guest compound was formed.; C: A cocrystal was not formed (a mixture of the host compound and the guest compound was formed); conditions: host theophylline, equimolar guest, mixed/ground in agate mortar
Experimental: as §1, with “3 mg (0.0167 mmoles) of theophylline” for “Carbamazepine”, “1” for “4”, “amount (0.0167 mmoles)” for “amount”, “theophylline” for “carbamazepine”

[4] = Cocrystal screening by slurry method (Comparative Examples 1-1 to 1-6), powder X-ray diffraction; design: key to Cocrystal formation, Comparative Example 1* / Cocrystal formation, Comparative Example 1-1 / Cocrystal formation, Comparative Example 1-2 / Cocrystal formation, Comparative Example 1-3 / Cocrystal formation, Comparative Example 1-4 / Cocrystal formation, Comparative Example 1-5 / Cocrystal formation, Comparative Example 1-6: A cocrystal was completely formed.; B: A mixture of a cocrystal and the host compound or guest compound was formed.; C: A cocrystal was not formed (a mixture of the host compound and the guest compound was formed); conditions: host theophylline; for Cocrystal formation, Comparative Example 1-6: slurry in acetone; for Cocrystal formation, Comparative Example 1-6 / Cocrystal formation, Comparative Example 1-2 / Cocrystal formation, Comparative Example 1-5 / Cocrystal formation, Comparative Example 1-3 / Cocrystal formation, Comparative Example 1-4 / Cocrystal formation, Comparative Example 1-1: room temperature 7 days; for Cocrystal formation, Comparative Example 1-2: slurry in ethanol; for Cocrystal formation, Comparative Example 1-5: slurry in ethyl acetate; for Cocrystal formation, Comparative Example 1-3: slurry in tetrahydrofuran; for Cocrystal formation, Comparative Example 1-4: slurry in toluene; for Cocrystal formation, Comparative Example 1-1: slurry in water; for Cocrystal formation, Comparative Example 1*: slurry summary: A if a cocrystal was formed in any one of Comparative Examples 1-1 to 1-6
Experimental: (§2) 3 mg (0.0167 mmoles) of theophylline and a guest compound shown in Table 1 in an equimolar amount (0.0167 mmoles) to theophylline were weighed and put into a glass container, to which was then added 60 μL of water. These were shaken at room temperature for 7 days, and the obtained residues were subjected to powder X-ray diffraction measurement. 3 mg (0.0167 mmoles) of theophylline and a guest compound shown in Table I in an equimolar amount (0.0167 mmoles) to theophylline were weighed and put into a glass container, to which was then added 60 μL of ethanol. These were shaken at room temperature for 7 days, and the obtained residues were subjected to powder X-ray diffraction measurement. 3 mg (0.0167 mmoles) of theophylline and a guest compound shown in Table 1 in an equimolar amount (0.0167 mmoles) to theophylline were weighed and put into a glass container, to which was then added 60 μL of tetrahydrofuran. This was shaken at room temperature for 7 days, and the obtained residues were subjected to powder X-ray diffraction measurement. 3 mg (0.0167 mmoles) of theophylline and a guest compound shown in Table 1 in an equimolar amount (0.0167 mmoles) to theophylline were weighed and put into a glass container, to which was then added 60 μL of toluene. These were shaken at room temperature for 7 days, and the obtained residues were subjected to powder X-ray diffraction measurement. 3 mg (0.0167 mmoles) of theophylline and a guest compound shown in Table 1 in an equimolar amount (0.0167 mmoles) to theophylline were weighed and put into a glass container, to which was then added 60 μL of ethyl acetate. These were shaken at room temperature for 7 days, and the obtained residues were subjected to powder X-ray diffraction measurement. 3 mg (0.0167 mmoles) of theophylline and a guest compound shown in Table 1 in an equimolar amount (0.0167 mmoles) to theophylline were weighed and put into a glass container, to which was then added 60 μL of acetone. These were shaken at room temperature for 7 days, and the obtained residues were subjected to powder X-ray diffraction measurement.

[5] = Cocrystal screening by slurry method (Comparative Examples 4-1 to 4-6), powder X-ray diffraction; design: key: A cocrystal was completely formed.; B: A mixture of a cocrystal and the host compound or guest compound was formed.; C: A cocrystal was not formed (a mixture of the host compound and the guest compound was formed); conditions: host carbamazepine; for Cocrystal formation, Comparative Example 4-6: slurry in acetone; for Cocrystal formation, Comparative Example 4-6 / Cocrystal formation, Comparative Example 4-2 / Cocrystal formation, Comparative Example 4-5 / Cocrystal formation, Comparative Example 4-4 / Cocrystal formation, Comparative Example 4-1 / Cocrystal formation, Comparative Example 4-3: room temperature 7 days; for Cocrystal formation, Comparative Example 4-2: slurry in ethanol; for Cocrystal formation, Comparative Example 4-5: slurry in ethyl acetate; for Cocrystal formation, Comparative Example 4-4: slurry in toluene; for Cocrystal formation, Comparative Example 4-1: slurry in water; for Cocrystal formation, Comparative Example 4*: slurry summary: A if a cocrystal was formed in any one of Comparative Examples 4-1 to 4-6; for Cocrystal formation, Comparative Example 4-3: slurry in tetrahydrofuran
Experimental: as §2, with “(0.0127” for “(0.0167”, “carbamazepine” for “theophylline”, “4” for “1”, “4” for “I”, “These were” for “This was”

Structure (SMILES)	Cocrystal formation, Example 1 [1]	Cocrystal formation, Comparative Example 5 [2]	Cocrystal formation, Comparative Example 2 [3]	Cocrystal formation, Comparative Example 1-6 [4]	Cocrystal formation, Comparative Example 1-2 [4]	Cocrystal formation, Comparative Example 1-5 [4]	Cocrystal formation, Comparative Example 1-3 [4]	Cocrystal formation, Comparative Example 1-4 [4]	Cocrystal formation, Comparative Example 1-1 [4]	Cocrystal formation, Comparative Example 1* [4]	Cocrystal formation, Comparative Example 4-6 [5]	Cocrystal formation, Comparative Example 4-2 [5]	Cocrystal formation, Comparative Example 4-5 [5]	Cocrystal formation, Comparative Example 4-4 [5]	Cocrystal formation, Comparative Example 4-1 [5]	Cocrystal formation, Comparative Example 4* [5]	Cocrystal formation, Comparative Example 4-3 [5]
NCC(=O)O [Glycine]	C	C	C	C	C	C	C	C	C	C	C	C	C	C	C	C	
O=C(O)c1ccccc1 [Benzoic acid]	A	C	C	C	C	C	C	C	C	C	C	C	C	C	C	C	
CC(C)C[C@H](N)C(=O)O [L-Leucine]	C	C	C	C	C	C	C	C	C	C	C	C	C	C	C	C	
O=C(O)CCCC(=O)O [Glutaric acid]	A	C	C	C	C	C	C	C	C	C	C	C	C	C	C	C	
O=S(=O)(O)CCS(=O)(=O)O [Ethanedisulfonic acid]	A	C	A	A	A	A	A	A	C	A	A	A	A	A	C	A	A
NC(=O)c1ccccc1 [Benzamide]	A	C	C	C	C	C	C	C	A	A	C	A	A	A	B	A	A
C/C=C/C=C/C(=O)O [Sorbic acid]	B	C	C	C	C	A	C	A	C	A	C	C	C	C	C	C	
